These results are taken from publication PMC8834866, “2-Acetamido-2-deoxy-D-glucono-1,5-lactone Sulfonylhydrazones: Synthesis and Evaluation as Inhibitors of Human OGA and HexB Enzymes” (International Journal of Molecular Sciences, 2022).

For one data set, the target named is T1, hOGA (Homo sapiens, UniProt O60502).
T1 construct: The gene construct encoding the full-length human OGA fused to N-terminal His6-tag; His6 (N); made in house
T1 sequence (O60502 1-916): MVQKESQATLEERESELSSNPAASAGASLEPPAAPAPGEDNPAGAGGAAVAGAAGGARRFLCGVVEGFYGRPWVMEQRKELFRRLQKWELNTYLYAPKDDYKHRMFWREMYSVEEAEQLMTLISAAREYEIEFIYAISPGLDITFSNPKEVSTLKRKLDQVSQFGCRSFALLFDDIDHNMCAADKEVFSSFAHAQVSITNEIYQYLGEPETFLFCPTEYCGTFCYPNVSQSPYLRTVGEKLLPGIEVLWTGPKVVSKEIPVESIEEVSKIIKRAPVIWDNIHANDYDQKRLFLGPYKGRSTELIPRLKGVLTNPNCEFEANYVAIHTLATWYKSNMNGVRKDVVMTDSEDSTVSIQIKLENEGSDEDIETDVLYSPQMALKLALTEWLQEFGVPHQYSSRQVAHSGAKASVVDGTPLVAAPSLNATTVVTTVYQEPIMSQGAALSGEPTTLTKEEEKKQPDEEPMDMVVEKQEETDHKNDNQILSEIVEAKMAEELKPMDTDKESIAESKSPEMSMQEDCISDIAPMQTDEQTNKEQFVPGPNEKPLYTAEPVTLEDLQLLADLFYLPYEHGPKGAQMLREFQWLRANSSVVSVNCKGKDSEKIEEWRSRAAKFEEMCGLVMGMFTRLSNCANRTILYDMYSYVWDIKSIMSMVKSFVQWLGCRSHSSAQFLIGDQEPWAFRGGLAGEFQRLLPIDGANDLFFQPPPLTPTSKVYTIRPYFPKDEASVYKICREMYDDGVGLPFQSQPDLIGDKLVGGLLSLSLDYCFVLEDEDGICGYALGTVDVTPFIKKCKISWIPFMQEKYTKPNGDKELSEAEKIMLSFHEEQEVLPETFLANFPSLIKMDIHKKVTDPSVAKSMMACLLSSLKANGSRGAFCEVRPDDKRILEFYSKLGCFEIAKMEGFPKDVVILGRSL
Nature of the data set: hOGA inhibition, 4-MU-GlcNAc fluorescent substrate, Dixon plots (competitive model). The data set is classed as biochemical. Particulars: for Ki(hHexB)/Ki(hOGA): ratio defines selectivity towards hOGA; for Ki: recombinant hOGA, 4-MU-GlcNAc, pH 7.5, 37 °C. Here is the method:
(§1) The inhibitory potency of compounds 5a–f was evaluated against recombinant hOGA and hHexB enzymes. The enzymes were prepared and purified as described previously. For inhibition of hOGA, fluorescent 4-MU-GlcNAc was used as the substrate. […] In the case of inhibition of hHexB, Michaelis–Menten kinetics were evaluated using pNP-GlcNAc as a colorimetric substrate. Inhibition constants (Ki) were determined by nonlinear regression analyses by employing the competitive inhibition model (cf. the Experimental section and Supplementary Materials).
(§2) The detailed protocol for the expression of hOGA and the subsequent purification procedure of the recombinant protein have been described in our previous work. The gene construct encoding the full-length human OGA fused to N-terminal His6-tag was kindly provided by Prof. D. Vocadlo (SFU, Burnaby, BC, Canada). Human β-N-acetylhexosaminidase B (hHexB) was expressed in Pichia pastoris, and the extracellularly produced enzyme was isolated according to the procedure described by Krejzová et al..
The inhibitory potency of compounds 5a–f was evaluated against recombinant enzymes hOGA and hHexB. In the case of hOGA inhibition, 4-MU-GlcNAc was used as a substrate at three concentrations (7 µM, 12 µM, and 25 µM) in the reaction mixtures containing 50 mM potassium phosphate buffer (pH 7.5), an inhibitor 5a–f in a final concentration of 0 to 750 nM, and 3 nM hOGA. In all cases, the enzyme and the inhibitors were preincubated at 37 °C, then the reaction was initiated by the addition of the substrate. All reactions were carried out in a fluorescence cuvette (Hellma Analytics, Müllheim, Germany), held in the thermostat cell holder of a Jasco FP-8200 fluorescence spectrophotometer (Easton, MD, USA) equipped with a Xe lamp light source. The excitation of the reactions was performed at […] and emission was detected at […] every 10 s for 10 min. All measurements were performed in triplicates. Initial velocities were determined and the reciprocal of initial velocities was plotted against inhibitor concentrations. The inhibitory mode of the compounds on hOGA was assessed by the Cornish–Bowden method, which involves the plotting of [S]/v0 vs. inhibitor concentrations. […] Inhibition constants (Ki) were determined according to the competitive model of the Dixon method by plotting the reciprocal of initial velocities vs. inhibitor concentrations. The intersection point of the linearly fitted lines gave Ki in nM.

The target of the next data set is HexA/B. Also noted: method as in PMID 34186233. Conditions: enzyme contains two predominant isozymes, Hex A and Hex B; cited from earlier work.
In a further data set the target is OGA. Particulars: cited from earlier work.
The target in a further data set is T2, hHexB (Homo sapiens, UniProt P07686).
T2 construct: made in house; host or cells: Pichia pastoris
T2 sequence (P07686 122-556): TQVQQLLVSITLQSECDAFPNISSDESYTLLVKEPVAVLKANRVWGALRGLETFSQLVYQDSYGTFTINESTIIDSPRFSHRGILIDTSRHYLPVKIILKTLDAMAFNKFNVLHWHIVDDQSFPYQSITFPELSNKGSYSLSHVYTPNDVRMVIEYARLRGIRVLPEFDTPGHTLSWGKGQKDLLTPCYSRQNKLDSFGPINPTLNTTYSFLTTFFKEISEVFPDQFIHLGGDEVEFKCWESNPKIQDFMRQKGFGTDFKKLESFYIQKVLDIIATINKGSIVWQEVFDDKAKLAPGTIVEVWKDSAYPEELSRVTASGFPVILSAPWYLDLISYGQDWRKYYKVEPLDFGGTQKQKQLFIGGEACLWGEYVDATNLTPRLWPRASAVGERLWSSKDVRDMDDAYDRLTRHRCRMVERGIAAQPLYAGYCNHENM
Description: hHexB inhibition, pNP-GlcNAc colorimetric substrate, Michaelis–Menten kinetics. Conditions: recombinant hHexB, pH 5.0, 35 °C. The data set is classed as biochemical. As to the method: as §1, §2
In the case of hHexB inhibition, Michaelis–Menten kinetics were evaluated using pNP-GlcNAc as a substrate. The kinetic reactions took place in Eppendorf tubes in a final volume of 400 μL containing 24 nM HexB, pNP-GlcNAc substrate in the range of 0.1–3 mM, and various inhibitor concentrations ranging from 0 to 300 nM in 50 mM citrate-phosphate buffer, pH 5.0. The reactions were incubated at 35 °C and then 50 μL samples were taken every 60 s. Samples were mixed with a quenching solution of 150 μL 0.1 M Na2CO3 and the absorbance of the solutions was measured at 420 nm by a Tecan Sunrise plate reader (Männedorf, Switzerland). All measurements were performed in triplicates. Initial velocities were determined from the data points by linear fit, and then nonlinear regression analyses were performed using the competitive inhibition model to calculate Ki values. GraphPad Prism software was used for the calculations.

The target of the next data set is HexB. Conditions: cited from earlier work.

Structures are written as SMILES. Where “and” joins values, the source holds several entries; their conditions need not be identical. Equal entries are not always repeated.

Consider `CC(=O)N[C@H]1C(=NNC(=O)Nc2ccc3ccccc3c2)O[C@H](CO)[C@@H](O)[C@@H]1O` [2-acetamido-2-deoxy-D-glucono-1,5-lactone 4-(2-naphthyl)-semicarbazone], for which the “Ki(hHexB)/Ki(hOGA)” value on hOGA came to 1.3. The Ki on HexA/B was 47 nM; at OGA, 36 nM.
`CC(=O)N[C@H]1C(=NNS(=O)(=O)c2ccc(C)cc2)O[C@H](CO)[C@@H](O)[C@@H]1O` [5a, 2-Acetamido-2-deoxy-D-glucono-1,5-lactone p-Toluenesulfonylhydrazone] returned a melting point of 165 to 166 °C. The Ki at hHexB turned out to be 21 ± 2 nM. Also, at hOGA, the “Ki(hHexB)/Ki(hOGA)” value worked out at 0.27 and the Ki was 78 ± 1 nM.
For `CC(=O)N[C@H]1C(=NNS(=O)(=O)c2ccc(C(F)(F)F)cc2)O[C@H](CO)[C@@H](O)[C@@H]1O` [5b, 2-Acetamido-2-deoxy-D-glucono-1,5-lactone p-Trifluoromethylbenzenesulfonylhydrazone], in that order: 175 to 176 °C (dec.), 48 ± 4 nM, 0.21 and 230 ± 17 nM.
`CC(=O)N[C@H]1C(=NNS(=O)(=O)c2ccc(F)cc2)O[C@H](CO)[C@@H](O)[C@@H]1O` [5c, 2-Acetamido-2-deoxy-D-glucono-1,5-lactone p-Fluorobenzenesulfonylhydrazone] registered a melting point of 175 to 177 °C. Besides, the Ki at hHexB was 45 ± 3 nM. The Ki on hOGA stood at 95 ± 11 nM.
In the case of `CC(=O)N[C@H]1C(=NNS(=O)(=O)c2ccc(Cl)cc2)O[C@H](CO)[C@@H](O)[C@@H]1O` [5d, 2-Acetamido-2-deoxy-D-glucono-1,5-lactone p-Chlorobenzenesulfonylhydrazone], the melting point is 180 to 182 °C (dec.). Also, the Ki at hHexB is 39 ± 2 nM. Moreover, at hOGA, the “Ki(hHexB)/Ki(hOGA)” value is given as 0.56 and the inhibition constant Ki is 70 ± 3 nM.
In turn, `CC(=O)N[C@H]1C(=NNS(=O)(=O)c2ccc3ccccc3c2)O[C@H](CO)[C@@H](O)[C@@H]1O` [5e, 2-Acetamido-2-deoxy-D-glucono-1,5-lactone 2-Naphthalenesulfonylhydrazone] returned a melting point of 172 to 173 °C. For the same compound, the Ki at hHexB is 30 ± 3 nM. At hOGA, the “Ki(hHexB)/Ki(hOGA)” value was 1; the Ki was ~30 nM and 30 nM.
Turning to `CC(=O)N[C@H]1/C(=N/NS(=O)(=O)c2cccc3ccccc23)O[C@H](CO)[C@@H](O)[C@@H]1O` [5f, 2-Acetamido-2-deoxy-D-glucono-1,5-lactone 1-Naphthalenesulfonylhydrazone], the melting point was in the range of 145 to 147 °C. Moreover, the Ki on hHexB was 6.8 ± 1.8 nM. Besides, at hOGA, the “Ki(hHexB)/Ki(hOGA)” value came to 0.25 and the Ki is 27 ± 7 nM.
In the case of `CC(=O)N[C@H]1/C(=N/OC(=O)Nc2ccc(Br)cc2)O[C@H](CO)[C@@H](O)[C@@H]1O` [I (4-Br-C6H4-)], the Ki was 56 nM at OGA and 47 nM on HexB.
With `CC(=O)N[C@H]1/C(=N/OC(=O)Nc2ccc(C)cc2)O[C@H](CO)[C@@H](O)[C@@H]1O` [I (4-Me-C6H4-)], the Ki at OGA was 28 nM; on HexB, 21 nM.
`CC(=O)N[C@H]1/C(=N/NC(=O)Nc2ccc(Cl)cc2)O[C@H](CO)[C@@H](O)[C@@H]1O` [II (4-Cl-C6H4-)]: the Ki on HexA/B was 170 nM; on OGA, 83 nM.
Consider `CC(=O)N[C@H]1/C(=N/NC(=O)Nc2ccc(C)cc2)O[C@H](CO)[C@@H](O)[C@@H]1O` [II (4-Me-C6H4-)], for which the Ki was 332 nM on HexA/B and 155 nM at OGA.
Take `CC(=O)N[C@H]1/C(=N/NC(=O)Nc2ccccc2)O[C@H](CO)[C@@H](O)[C@@H]1O` [II (Ph)]: the Ki was 205 nM at HexA/B and 190 nM at OGA.
Regarding `CC(=O)N[C@H]1/C(=N/OC(=O)Nc2ccccc2)O[C@H](CO)[C@@H](O)[C@@H]1O` [PUGNAc], the “Ki(hHexB)/Ki(hOGA)” value at hOGA was determined as 0.8. In addition, the Ki at OGA was 46 nM; at HexB it was 36 nM.

In general, Ki refers to the equilibrium dissociation constant of an inhibitor or competing ligand from its target. Broadly, the melting point is the temperature, or range, at which the solid turns liquid.
